Among the data in patent publication US10239843B2 (CANCER RESEARCH TECHNOLOGY LIMITED, priority 2014, dated 2019) are IC50 values, retold here.

One assay addresses Human Full Length PARG (Homo sapiens (Human), UniProt Q86W56). As to the kind of experiment: PARG enzyme assay (TR-FRET). Particulars: read-out: PARG Biochem IC50. The format is biochemical. In general terms: TR-FRET usually uses a lanthanide donor and a delayed reading to cut background.
Another assay has as its system PARG in HeLa cell line. In words: PARG cell assay (PAR chain immunofluorescence after MMS). Particulars: HeLa cells, MMS treatment, read-out: PARG Cell IC50. It counts as cell-based. In a few lines:
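HeLa cells were dosed with compound for 1 h, then given MMS at 50 μg/mL final for a further hour. Cells were methanol-fixed, permeabilised and stained overnight at 4° C with anti-PAR monoclonal antibody. Retained nuclear PAR chains, detected by indirect immunofluorescence, indicate PARG inhibition.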

Like-named read-outs stand apart in the source and are kept apart here.

Chain of Human Full Length PARG (Q86W56 whole entry): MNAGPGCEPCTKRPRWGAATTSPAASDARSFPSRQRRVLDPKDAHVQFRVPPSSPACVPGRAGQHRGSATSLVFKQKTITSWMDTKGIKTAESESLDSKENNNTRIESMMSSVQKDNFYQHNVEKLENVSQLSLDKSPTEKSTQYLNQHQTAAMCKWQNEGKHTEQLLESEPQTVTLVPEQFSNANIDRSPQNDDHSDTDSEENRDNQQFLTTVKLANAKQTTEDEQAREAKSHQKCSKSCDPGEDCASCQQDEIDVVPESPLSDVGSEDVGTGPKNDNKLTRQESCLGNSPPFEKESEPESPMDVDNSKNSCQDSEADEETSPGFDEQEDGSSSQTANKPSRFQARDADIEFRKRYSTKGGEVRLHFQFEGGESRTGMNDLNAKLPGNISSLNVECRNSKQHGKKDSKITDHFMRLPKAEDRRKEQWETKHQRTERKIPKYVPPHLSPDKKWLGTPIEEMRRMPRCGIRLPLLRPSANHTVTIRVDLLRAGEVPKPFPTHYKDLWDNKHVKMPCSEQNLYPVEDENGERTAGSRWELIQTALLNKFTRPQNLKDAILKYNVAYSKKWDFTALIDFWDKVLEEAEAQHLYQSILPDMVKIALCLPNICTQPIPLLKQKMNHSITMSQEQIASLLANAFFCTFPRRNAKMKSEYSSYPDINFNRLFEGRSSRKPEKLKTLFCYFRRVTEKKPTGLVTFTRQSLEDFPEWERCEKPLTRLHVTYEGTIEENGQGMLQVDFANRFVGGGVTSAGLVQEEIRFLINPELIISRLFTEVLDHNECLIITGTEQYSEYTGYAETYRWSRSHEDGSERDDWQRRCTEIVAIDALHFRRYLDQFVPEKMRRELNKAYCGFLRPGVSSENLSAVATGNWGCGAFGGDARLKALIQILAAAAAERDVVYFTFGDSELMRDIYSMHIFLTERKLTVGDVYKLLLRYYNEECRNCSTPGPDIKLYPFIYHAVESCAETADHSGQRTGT

`CCOC(=O)Cn1c(=O)c2cc(S(=O)(=O)NC3(C)CC3)ccc2n(C)c1=O` [Example 468, Ethyl 2-[1-methyl-6-[(1-methylcyclopropyl)sulfamoyl]-2,4-dioxo-quinazolin-3-yl]acetate]: the 50% inhibitory concentration (IC50) at Human Full Length PARG worked out at 3980 nM; in the assay on PARG in HeLa cell line (Homo sapiens), 1120 nM.

Turning to `CCC(=O)Cn1c(=O)c2cc(S(=O)(=O)NC3(C)CC3)ccc2n(C)c1=O` [Example 469, 1-Methyl-N-(1-methylcyclopropyl)-2,4-dioxo-3-(2-oxobutyl)quinazoline-6-sulfonamide], the half-maximal inhibitory concentration (IC50) on Human Full Length PARG is 1200 nM; in the assay with PARG in HeLa cell line (Homo sapiens), 663 nM.

With `CCC(CC)Cn1c(=O)n(Cc2cc(C)no2)c(=O)c2cc(S(=O)(=O)NC3(C)CC3)ccc21` [Example 470, 1-(2-Ethylbutyl)-N-(1-methylcyclopropyl)-3-[(3-methylisoxazol-5-yl)methyl]-2,4-dioxo-quinazoline-6-sulfonamide], the IC50 was determined as 546 nM at Human Full Length PARG and 266 nM in the assay on PARG in HeLa cell line (Homo sapiens).

For `COC1(Cn2c(=O)n(Cc3cc(C)no3)c(=O)c3cc(S(=O)(=O)NC4(C)CC4)ccc32)CCCC1` [Example 471, 1-[(1-Methoxycyclopentyl)methyl]-N-(1-methylcyclopropyl)-3-[(3-methylisoxazol-5-yl)methyl]-2,4-dioxo-quinazoline-6-sulfonamide], the values for the IC50 at Human Full Length PARG and in the assay with PARG in HeLa cell line (Homo sapiens) were 550 nM and 241 nM, respectively.

Turning to `Cc1cc(Cn2c(=O)c3cc(S(=O)(=O)NC4(C)CC4)ccc3n(CCC(C)C)c2=O)on1` [Example 472, 1-Isopentyl-N-(1-methylcyclopropyl)-3-[(3-methylisoxazol-5-yl)methyl]-2,4-dioxo-quinazoline-6-sulfonamide], the half-maximal inhibitory concentration (IC50) is 273 nM on Human Full Length PARG and 198 nM in the assay with PARG in HeLa cell line (Homo sapiens).

On to `Cc1cc(Cn2c(=O)c3cc(S(=O)(=O)NC4(C)CC4)ccc3n(Cc3cnn(C(C)C)c3)c2=O)on1` [Example 473, 1-[(1-Isopropylpyrazol-4-yl)methyl]-N-(1-methylcyclopropyl)-3-[(3-methylisoxazol-5-yl)methyl]-2,4-dioxo-quinazoline-6-sulfonamide], for which the concentration for half-maximal inhibition (IC50) worked out at 196 nM at Human Full Length PARG and 144 nM in the assay on PARG in HeLa cell line.

In the case of `Cc1cc(Cn2c(=O)c3cc(S(=O)(=O)NC4(C)CC4)ccc3n(CCCC(C)C)c2=O)on1` [Example 474, 1-Isohexyl-N-(1-methylcyclopropyl)-3-[(3-methylisoxazol-5-yl)methyl]-2,4-dioxo-quinazoline-6-sulfonamide], the IC50 was 331 nM at Human Full Length PARG and 548 nM in the assay on PARG in HeLa cell line (Homo sapiens).

As to `Cn1c(=O)n(CC(=O)N2CCCC2)c(=O)c2cc(S(=O)(=O)NC3(C)CC3)ccc21` [Example 475, 1-Methyl-N-(1-methylcyclopropyl)-2,4-dioxo-3-(2-oxo-2-pyrrolidin-1-yl-ethyl)quinazoline-6-sulfonamide], the IC50 at Human Full Length PARG worked out at 6120 nM; with PARG in HeLa cell line (Homo sapiens) it was 1170 nM.

For the molecule `CN(C)C(=O)Cn1c(=O)c2cc(S(=O)(=O)NC3(C)CC3)ccc2n(C)c1=O` [Example 476, N,N-Dimethyl-2-[1-methyl-6-[(1-methylcyclopropyl)sulfamoyl]-2,4-dioxo-quinazolin-3-yl]acetamide], the IC50 on Human Full Length PARG was 3710 nM; in the assay on PARG in HeLa cell line (Homo sapiens) it was 1340 nM.

Turning to `Cc1cc(Cn2c(=O)c3cc(S(=O)(=O)NC4(C)CC4)ccc3n(CC3CC(C)(C)C3)c2=O)on1` [Example 477, 1-[(3,3-Dimethylcyclobutyl)methyl]-N-(1-methylcyclopropyl)-3-[(3-methylisoxazol-5-yl)methyl]-2,4-dioxo-quinazoline-6-sulfonamide], the IC50 on Human Full Length PARG turned out to be 208 nM; with PARG in HeLa cell line, 403 nM.

With `Cc1ncc(Cn2c(=O)c3cc(S(=O)(=O)NC4(C)CC4)ccc3n(CC3CC(C)(C)C3)c2=O)s1` [Example 478, 1-[(3,3-dimethylcyclobutyl)methyl]-N-(1-methylcyclopropyl)-3-[(2-methylthiazol-5-yl)methyl]-2,4-dioxo-quinazoline-6-sulfonamide], the IC50 came out at 109 nM on Human Full Length PARG and 121 nM with PARG in HeLa cell line (Homo sapiens).

As a reminder, the IC50 is the concentration that inhibits the measured activity by half.
